The values that follow come from patent US20100331368A1, “2,5-DIARYL SELENOPHENE COMPOUNDS, AZA 2,5-DIARYL THIOPHENE COMPOUNDS, AND THEIR PRODRUGS AS ANTIPROTOZOAL AGENTS” (priority 2007, published 2010).

In series [1] the test system is L-6 rat mycoblast cells. In words: Cell toxicity assay in L-6 cells.
For series [2], the system named is Plasmodium falciparum (P. f.). Briefly: In vitro antiprotozoal activity against Plasmodium falciparum. Format: cell-based. The method, then:
(§1) In vitro antiprotozoal activities were measured following established protocols. […] E., et al., Bioorg.

The test system of series [3] is Trypanosoma brucei rhodesiense (T. b. r.). Briefly: In vitro antiprotozoal activity against Trypanosoma brucei rhodesiense. Format: cell-based. The method, then:
as §1

In series [4] the test system is STIB 900 strain of Trypanosoma brucei rhodesiense. In words: In vivo activity against T. b. r. STIB 900 in a mouse model. As to conditions: for responders at 20 mg/kg / responders at 25 mg/kg / responders at 5 mg/kg: Trypanosoma brucei, 1440 h, read-out: Cures (number of mice that survive and are parasite free for 60 days); for Survival (average days of survival) / Cures (number of mice that survive and are parasite free for 60 days): mouse, days 3-6 post-infection; for Survival (average days of survival): untreated controls expire between 7 and 8 days; for Cures (number of mice that survive and are parasite free for 60 days): groups of four mice. The method, then:
The activities of compounds 4, 5, 6, 11, 12, 18, 20, 22, 27, 28, 30 and 33 against the STIB 900 strain of Trypanosoma brucei rhodesiense (T. b. r.) in a mouse model are shown in Table 2. […] Groups of four mice were infected intraperitoneally with 2×10^5 bloodstream forms of T. b. r. STIB 900 which originates from a patient in Tanzania. On days 3, 4, 5, and 6 post-infection the experimental groups were treated with the drugs either by the intraperitoneal or for prodrugs by the oral route. Usually the highest tolerated dose was used which was determined in a pretoxicological experiment. Parasitemia of the mice was checked daily up to day 14 post-infection and thereafter 2 times per week up to day 60. One group of mice was not treated and acted as control. For relapsing mice, the day of death was recorded and the survival time determined.

Series [5] has as its system Leishmania donovani (L. d.). Briefly: In vitro assay against Leishmania donovani. Format: cell-based. The method, then:
as §1

In series [6] the test system is L-6 rat mycoblast cells.
The mark [7] stands for this setting: Plasmodium falciparum, in vitro, read-out: IC50 values versus P.f.
Setting [8] is: Plasmodium falciparum, in vitro, read-out: P.f. IC50.
Where [9] appears, read: Trypanosoma brucei, RHODESIENSE, in vitro, read-out: IC50 values versus T.b.r.
Where [10] appears, read: Trypanosoma brucei, RHODESIENSE, in vitro, read-out: T.b.r. IC50.
[11] abbreviates: Leishmania donovani, in vitro, read-out: IC50 values versus L.d.
Where [12] appears, read: Leishmania donovani, in vitro, read-out: L.d. C50.
Setting [13] is: in vitro, read-out: T.b.r. IC50.

Structures can show the parent of a compound that is named as a salt. Where two headings read alike, the source gives them in different places.

For the compound `Cl.Cl.N=C(N)c1ccc(-c2ccc(-c3ccc(C(=N)N)cc3)[se]2)cc1` [Compound 4, 2,5-Bis(4-amidinophenyl)selenophene Dihydrochloride], the Cytotoxocity in series [1] was found to be 9.7 µM. Moreover, the IC50 in series [2] (Plasmodium falciparum, read-out: IC50 values versus P.f.) was no more than 14 nM; in series [2] (Plasmodium falciparum, read-out: P.f. IC50), 2 nM; in series [3] (Trypanosoma brucei, RHODESIENSE, read-out: IC50 values versus T.b.r.), no more than 26 nM; in series [3] (Trypanosoma brucei, RHODESIENSE, read-out: T.b.r. IC50), 2 nM; in series [5] (Leishmania donovani, read-out: IC50 values versus L.d.), less than 200 nM; in series [5] (Leishmania donovani, read-out: L.d. C50), 170 nM. Also, in series [4] (ip), the responders at 20 mg/kg was 50%. The “Survival (average days of survival)” value in series [4] (ip, 20 mg/kg) was 55.5 days.

For `Cl.Cl.N=C(NO)c1ccc(-c2ccc(-c3ccc(C(=N)NO)cc3)[se]2)cc1` [Compound 5, 2,5-Bis[4-(N-hydroxyamidino)phenyl]selenophene Dihydrochloride], in series [4] (po), the responders at 25 mg/kg was 0%. For the same compound, the “Survival (average days of survival)” value in series [4] (po, 25 mg/kg) was found to be 11.5 days.

As to `CONC(=N)c1ccc(-c2ccc(-c3ccc(C(=N)NOC)cc3)[se]2)cc1.Cl.Cl` [Compound 6, 2,5-Bis[4-(N-methoxyamidino)phenyl]selenophene Dihydrochloride], in series [4] (po), the responders at 25 mg/kg is 0%. In addition, the “Survival (average days of survival)” value in series [4] (po, 25 mg/kg) is 15.25 days.

Consider `N=C(N)c1ccc(-c2ccc(-c3ccc(C(=N)N)cn3)[se]2)cc1` [Compound 11, 6-[5-(4-Amidinophenyl)-selenophen-2-yl]-nicotinamidine], for which, in series [1], the Cytotoxocity was found to be 27.7 µM. Also, the IC50 was no more than 14 nM in series [2] (setting [7]); 10 nM in series [2] (setting [8]); no more than 26 nM in series [3] (setting [9]); 9 nM in series [3] (setting [10]); 1600 nM in series [5] (setting [11]); 1600 nM in series [5] (setting [12]). Also, in series [4] (ip), the responders at 5 mg/kg was 100%. The “Survival (average days of survival)” value in series [4] (ip, 5 mg/kg) is reported as 60 days.

Consider `N/C(=N\O)c1ccc(-c2ccc(-c3ccc(/C(N)=N/O)cn3)[se]2)cc1` [Compound 12], for which the responders at 25 mg/kg in series [4] (po) was found to be 0%. In series [4] (po, 25 mg/kg), the “Survival (average days of survival)” value is 26 days.

In series [1], `N=C(N)c1ccc(-c2ccc(-c3ccc(C(=N)N)nc3)[se]2)cc1` [Compound 18, 5-[5-(4-Amidinophenyl)-selenophen-2-yl]-pyridine-2-amidine] displayed a Cytotoxocity of 13.4 µM. Also, the IC50 in series [2] (setting [7]) is no more than 14 nM; in series [2] (setting [8]), 14 nM; in series [3] (setting [9]), no more than 26 nM; in series [3] (setting [10]), 26 nM; in series [5] (setting [11]), less than 200 nM; in series [5] (setting [12]) it was 130 nM. Further, in series [4] (ip), the responders at 5 mg/kg was 100%. Besides, the “Survival (average days of survival)” value in series [4] (ip, 5 mg/kg) is recorded as 60 days.

`CO/N=C(\N)c1ccc(-c2ccc(-c3ccc(/C(N)=N/OC)nc3)[se]2)cc1` [Compound 20, 5-{5-[4-(N-Methoxyamidino)-phenyl]-selenophen-2-yl}-pyridine-2-N-methoxyamidine]: in series [4] (po), the responders at 25 mg/kg is 25%. Further, the “Survival (average days of survival)” value in series [4] (po, 25 mg/kg) is on record as 36.5 days.

Consider `N=C(N)c1ccc(-c2ccc(-c3ccc(C(=N)N)nc3)[se]2)cn1` [Compound 22, 2,5-Bis-[5-(2-amidino-pyridyl)]selenophene dihydrochloride], for which, in series [1], the Cytotoxocity was 5.6 µM. The IC50 in series [2] (setting [7]) is no more than 14 nM; in series [2] (setting [8]) it was 4 nM; in series [3] (setting [9]), no more than 26 nM; in series [3] (setting [10]), 2 nM; in series [5] (setting [11]), less than 200 nM; in series [5] (setting [12]) it was 53 nM. In addition, the responders at 5 mg/kg in series [4] (ip) is 100%. For the same compound, in series [4] (ip, 5 mg/kg), the “Survival (average days of survival)” value is recorded as 60 days.

On to `N=C(N)c1ccc(-c2ccc(-c3ccc(C(=N)N)cn3)[se]2)nc1` [Compound 27, 2,5-Bis-[2-(5-amidino-pyridyl)]selenophene dihydrochloride], for which the Cytotoxocity in series [1] was 158.3 µM. The IC50 in series [2] (setting [7]) is no more than 14 nM; in series [2] (setting [8]), 10 nM; in series [3] (setting [10]) it was 50 nM; in series [5] (setting [12]), 5600 nM. In addition, the responders at 5 mg/kg in series [4] (ip) was 100%. Further, the “Survival (average days of survival)” value in series [4] (ip, 5 mg/kg) is recorded as 60 days.

Consider `NC(=NO)c1ccc(-c2ccc(-c3ccc(C(N)=NO)cn3)[se]2)nc1` [Compound 28, 2,5-Bis-[2-{5-(N-hydroxyamidino)-pyridyl}]selenophene dihydrochloride], for which the responders at 25 mg/kg in series [4] (po) worked out at 0%. Besides, the “Survival (average days of survival)” value in series [4] (po, 25 mg/kg) is reported as 20 days.

As to `Cl.Cl.N=C(N)c1ccc(-c2ccc(-c3ccc(C(=N)N)cn3)s2)nc1` [Compound 30, 2,5-Bis-[2-(5-amidino-pyridyl)]thiophene dihydrochloride], the IC50 is 18 nM in series [2] (in vitro, read-out: P.f. IC50); 68 nM in series [3] (setting [13]); 23300 nM in series [5] (in vitro, read-out: L.d. C50). Besides, the Cytotoxocity in series [6] is greater than 222 µM. For the same compound, the “Cures (number of mice that survive and are parasite free for 60 days)” value in series [4] (ip, 5 mg/kg) is 1/4. The “Survival (average days of survival)” value in series [4] (ip, 5 mg/kg) is on record as 50.25 days.

For `Cl.Cl.N=C(N)c1ccc(-c2ccc(-c3ccc(C(=N)N)nc3)s2)cn1` [Compound 33, 2,5-Bis-[5-(2-amidino-pyridyl)]thiophene dihydrochloride], the IC50 is 3 nM in series [2] (in vitro, read-out: P.f. IC50); 4 nM in series [3] (setting [13]); 127 nM in series [5] (in vitro, read-out: L.d. C50). In series [6], this compound returned a Cytotoxocity of 4.8 µM. In addition, the “Cures (number of mice that survive and are parasite free for 60 days)” value in series [4] (ip, 5 mg/kg) is 1/4. Also, in series [4] (ip, 5 mg/kg), the “Survival (average days of survival)” value is given as 42.5 days.

As for `N=C(N)c1ccc(-c2ccc(-c3ccc(C(=N)N)cc3)o2)cc1` [Furamidine, reference compound], the Cytotoxocity in series [1] turned out to be 6.4 µM. In series [3] (setting [13]), the IC50 was found to be 4.3 nM. Also, in series [4] (ip, 10 mg/kg), the “Cures (number of mice that survive and are parasite free for 60 days)” value was 0/4; the “Survival (average days of survival)” value is 44.5 days. In series [5] (in vitro, read-out: L.d. C50), the IC50 came to 2700 nM.

`N=C(N)c1ccc(OCCCCCOc2ccc(C(=N)N)cc2)cc1` [Pentamidine, reference compound]: the responders at 20 mg/kg in series [4] (ip) was determined as 0%. In addition, in series [4] (ip, 20 mg/kg), the “Survival (average days of survival)” value came out at 42.75 days. For the same compound, in series [5] (setting [12]), the IC50 was 2000 nM.
